{
  "source": "ChEMBL document CHEMBL2396621",
  "about": "“Design, synthesis and biological evaluation of 2-mercapto-3-phenethylquinazoline bearing anilide fragments as potential antitumor agents: molecular docking study” (2013)",
  "format_in_all_cases": "functional",
  "key": {"[1]": {"assay": "Cytotoxicity against human NCI-ADR-RES cells assessed as growth inhibition at 10 uM after 48 hrs by coulter counter analysis", "conditions": "read-out: GI"}, "MDA-MB-435": {"system": "MDA-MB-435", "assay": "Cytotoxicity against human MDA-MB-435 cells assessed as growth inhibition at 10 uM after 48 hrs by coulter counter analysis", "conditions": "MDA-MB-435, 48 h, read-out: GI"}, "A498": {"system": "A498", "assay": "Cytotoxicity against human A498 cells assessed as growth inhibition at 10 uM after 48 hrs by coulter counter analysis", "conditions": "A498, 48 h, read-out: GI"}, "PC-3": {"system": "PC-3", "assay": "Cytotoxicity against human PC3 cells assessed as growth inhibition at 10 uM after 48 hrs by coulter counter analysis", "conditions": "PC-3, 48 h, read-out: GI"}, "T47D": {"system": "T47D", "assay": "Cytotoxicity against human T47D cells assessed as growth inhibition at 10 uM after 48 hrs by coulter counter analysis", "conditions": "read-out: GI"}, "UO-31": {"system": "UO-31", "assay": "Cytotoxicity against human UO31 cells assessed as growth inhibition at 10 uM after 48 hrs by coulter counter analysis", "conditions": "UO-31, 48 h, read-out: GI"}, "SK-MEL-5": {"system": "SK-MEL-5", "assay": "Cytotoxicity against human SK-MEL-5 cells assessed as growth inhibition at 10 uM after 48 hrs by coulter counter analysis", "conditions": "SK-MEL-5, 48 h, read-out: GI"}, "OVCAR-3": {"system": "OVCAR-3", "assay": "Cytotoxicity against human OVCAR3 cells assessed as growth inhibition at 10 uM after 48 hrs by coulter counter analysis", "conditions": "OVCAR-3, 48 h, read-out: GI"}, "COLO 205": {"system": "COLO 205", "assay": "Cytotoxicity against human COLO205 cells assessed as growth inhibition at 10 uM after 48 hrs by coulter counter analysis", "conditions": "COLO 205, 48 h, read-out: GI"}, "ACHN": {"system": "ACHN", "assay": "Cytotoxicity against human ACHN cells assessed as growth inhibition at 10 uM after 48 hrs by coulter counter analysis", "conditions": "read-out: GI"}, "SW-620": {"system": "SW-620", "assay": "Cytotoxicity against human SW620 cells assessed as growth inhibition at 10 uM after 48 hrs by coulter counter analysis", "conditions": "SW-620, 48 h, read-out: GI"}, "HOP-62": {"system": "HOP-62", "assay": "Cytotoxicity against human HOP62 cells assessed as growth inhibition at 10 uM after 48 hrs by coulter counter analysis", "conditions": "HOP-62, 48 h, read-out: GI"}, "HCC 2998": {"system": "HCC 2998", "assay": "Cytotoxicity against human HCC2998 cells assessed as growth inhibition at 10 uM after 48 hrs by coulter counter analysis", "conditions": "HCC 2998, 48 h, read-out: GI"}, "NCI-H522": {"system": "NCI-H522", "assay": "Cytotoxicity against human NCI-H522 cells assessed as growth inhibition at 10 uM after 48 hrs by coulter counter analysis", "conditions": "NCI-H522, 48 h, read-out: GI"}, "OVCAR-4": {"system": "OVCAR-4", "assay": "Cytotoxicity against human OVCAR4 cells assessed as growth inhibition at 10 uM after 48 hrs by coulter counter analysis", "conditions": "OVCAR-4, 48 h, read-out: GI"}, "HT-29": {"system": "HT-29", "assay": "Cytotoxicity against human HT-29 cells assessed as growth inhibition at 10 uM after 48 hrs by coulter counter analysis", "conditions": "HT-29, 48 h, read-out: GI"}, "HCT-15": {"system": "HCT-15", "assay": "Cytotoxicity against human HCT15 cells assessed as growth inhibition at 10 uM after 48 hrs by coulter counter analysis", "conditions": "HCT-15, 48 h, read-out: GI"}, "SF-539": {"system": "SF-539", "assay": "Cytotoxicity against human SF539 cells assessed as growth inhibition at 10 uM after 48 hrs by coulter counter analysis", "conditions": "SF-539, 48 h, read-out: GI"}, "KM12": {"system": "KM12", "assay": "Cytotoxicity against human KM12 cells assessed as growth inhibition at 10 uM after 48 hrs by coulter counter analysis", "conditions": "KM12, 48 h, read-out: GI"}, "NCI-H460": {"system": "NCI-H460", "assay": "Cytotoxicity against human NCI-H460 cells assessed as growth inhibition at 10 uM after 48 hrs by coulter counter analysis", "conditions": "NCI-H460, 48 h, read-out: GI"}, "TK-10": {"system": "TK-10", "assay": "Cytotoxicity against human TK10 cells assessed as growth inhibition at 10 uM after 48 hrs by coulter counter analysis", "conditions": "TK-10, 48 h, read-out: GI"}, "NCI-H322M": {"system": "NCI-H322M", "assay": "Cytotoxicity against human NCI-H322M cells assessed as growth inhibition at 10 uM after 48 hrs by coulter counter analysis", "conditions": "read-out: GI"}, "LOX IMVI": {"system": "LOX IMVI", "assay": "Cytotoxicity against human LOXIMVI cells assessed as growth inhibition at 10 uM after 48 hrs by coulter counter analysis", "conditions": "read-out: GI"}, "SF-268": {"system": "SF-268", "assay": "Cytotoxicity against human SF268 cells assessed as growth inhibition at 10 uM after 48 hrs by coulter counter analysis", "conditions": "SF-268, 48 h, read-out: GI"}, "SF-295": {"system": "SF-295", "assay": "Cytotoxicity against human SF295 cells assessed as growth inhibition at 10 uM after 48 hrs by coulter counter analysis", "conditions": "SF-295, 48 h, read-out: GI"}, "NCI-H23": {"system": "NCI-H23", "assay": "Cytotoxicity against human NCI-H23 cells assessed as growth inhibition at 10 uM after 48 hrs by coulter counter analysis", "conditions": "NCI-H23, 48 h, read-out: GI"}, "SN12C": {"system": "SN12C", "assay": "Cytotoxicity against human SN12C cells assessed as growth inhibition at 10 uM after 48 hrs by coulter counter analysis", "conditions": "read-out: GI"}, "SK-OV-3": {"system": "SK-OV-3", "assay": "Cytotoxicity against human SKOV3 cells assessed as growth inhibition at 10 uM after 48 hrs by coulter counter analysis", "conditions": "SK-OV-3, 48 h, read-out: GI"}, "BT-549": {"system": "BT-549", "assay": "Cytotoxicity against human BT549 cells assessed as growth inhibition at 10 uM after 48 hrs by coulter counter analysis", "conditions": "BT-549, 48 h, read-out: GI"}, "SNB-75": {"system": "SNB-75", "assay": "Cytotoxicity against human SNB75 cells assessed as growth inhibition at 10 uM after 48 hrs by coulter counter analysis", "conditions": "SNB-75, 48 h, read-out: GI"}, "UACC-257": {"system": "UACC-257", "assay": "Cytotoxicity against human UACC257 cells assessed as growth inhibition at 10 uM after 48 hrs by coulter counter analysis", "conditions": "UACC-257, 48 h, read-out: GI"}, "DU-145": {"system": "DU-145", "assay": "Cytotoxicity against human DU145 cells assessed as growth inhibition at 10 uM after 48 hrs by coulter counter analysis", "conditions": "DU-145, 48 h, read-out: GI"}, "MDA-MB-468": {"system": "MDA-MB-468", "assay": "Cytotoxicity against human MDA-MB-468 cells assessed as growth inhibition at 10 uM after 48 hrs by coulter counter analysis", "conditions": "MDA-MB-468, 48 h, read-out: GI"}, "IGROV-1": {"system": "IGROV-1", "assay": "Cytotoxicity against human IGROV1 cells assessed as growth inhibition at 10 uM after 48 hrs by coulter counter analysis", "conditions": "IGROV-1, 48 h, read-out: GI"}, "NCI-H226": {"system": "NCI-H226", "assay": "Cytotoxicity against human NCI-H226 cells assessed as growth inhibition at 10 uM after 48 hrs by coulter counter analysis", "conditions": "NCI-H226, 48 h, read-out: GI"}, "SNB-19": {"system": "SNB-19", "assay": "Cytotoxicity against human SNB19 cells assessed as growth inhibition at 10 uM after 48 hrs by coulter counter analysis", "conditions": "SNB-19, 48 h, read-out: GI"}, "A549": {"system": "A549", "assay": "Cytotoxicity against human A549 cells assessed as growth inhibition at 10 uM after 48 hrs by coulter counter analysis", "conditions": "A549, 48 h, read-out: GI"}},
  "data": [
    {"smiles": "COc1cc(OC(=O)CSc2nc3ccccc3c(=O)n2CCc2ccccc2)cc(OC)c1OC", "values": [
      {"measurement": "inhibition of growth at 10 µM", "setting": "[1]", "value": 11, "unit": "%"},
      {"measurement": "inhibition of growth at 10 µM", "setting": "MDA-MB-435", "value": "< 10", "unit": "%"},
      {"measurement": "inhibition of growth at 10 µM", "setting": "A498", "value": "< 10", "unit": "%"},
      {"measurement": "inhibition of growth at 10 µM", "setting": "PC-3", "value": "< 10", "unit": "%"},
      {"measurement": "inhibition of growth at 10 µM", "setting": "T47D", "value": 26, "unit": "%"},
      {"measurement": "inhibition of growth at 10 µM", "setting": "UO-31", "value": 37, "unit": "%"},
      {"measurement": "inhibition of growth at 10 µM", "setting": "SK-MEL-5", "value": "< 10", "unit": "%"},
      {"measurement": "inhibition of growth at 10 µM", "setting": "OVCAR-3", "value": "< 10", "unit": "%"},
      {"measurement": "inhibition of growth at 10 µM", "setting": "COLO 205", "value": "< 10", "unit": "%"},
      {"measurement": "inhibition of growth at 10 µM", "setting": "ACHN", "value": 10, "unit": "%"},
      {"measurement": "inhibition of growth at 10 µM", "setting": "SW-620", "value": "< 10", "unit": "%"},
      {"measurement": "inhibition of growth at 10 µM", "setting": "HOP-62", "value": "< 10", "unit": "%"},
      {"measurement": "inhibition of growth at 10 µM", "setting": "HCC 2998", "value": "< 10", "unit": "%"},
      {"measurement": "inhibition of growth at 10 µM", "setting": "NCI-H522", "value": "< 10", "unit": "%"},
      {"measurement": "inhibition of growth at 10 µM", "setting": "OVCAR-4", "value": "< 10", "unit": "%"},
      {"measurement": "inhibition of growth at 10 µM", "setting": "HT-29", "value": "< 10", "unit": "%"},
      {"measurement": "inhibition of growth at 10 µM", "setting": "HCT-15", "value": 48, "unit": "%"},
      {"measurement": "inhibition of growth at 10 µM", "setting": "SF-539", "value": "< 10", "unit": "%"},
      {"measurement": "inhibition of growth at 10 µM", "setting": "KM12", "value": "< 10", "unit": "%"},
      {"measurement": "inhibition of growth at 10 µM", "setting": "NCI-H460", "value": 26, "unit": "%"},
      {"measurement": "inhibition of growth at 10 µM", "setting": "TK-10", "value": "< 10", "unit": "%"},
      {"measurement": "inhibition of growth at 10 µM", "setting": "NCI-H322M", "value": 11, "unit": "%"},
      {"measurement": "inhibition of growth at 10 µM", "setting": "LOX IMVI", "value": "< 10", "unit": "%"},
      {"measurement": "inhibition of growth at 10 µM", "setting": "SF-268", "value": "< 10", "unit": "%"},
      {"measurement": "inhibition of growth at 10 µM", "setting": "SF-295", "value": 13, "unit": "%"},
      {"measurement": "inhibition of growth at 10 µM", "setting": "NCI-H23", "value": "< 10", "unit": "%"},
      {"measurement": "inhibition of growth at 10 µM", "setting": "SN12C", "value": 10, "unit": "%"},
      {"measurement": "inhibition of growth at 10 µM", "setting": "SK-OV-3", "value": "< 10", "unit": "%"},
      {"measurement": "inhibition of growth at 10 µM", "setting": "BT-549", "value": 10, "unit": "%"},
      {"measurement": "inhibition of growth at 10 µM", "setting": "SNB-75", "value": 12, "unit": "%"},
      {"measurement": "inhibition of growth at 10 µM", "setting": "UACC-257", "value": "< 10", "unit": "%"},
      {"measurement": "inhibition of growth at 10 µM", "setting": "DU-145", "value": "< 10", "unit": "%"},
      {"measurement": "inhibition of growth at 10 µM", "setting": "MDA-MB-468", "value": "< 10", "unit": "%"},
      {"measurement": "inhibition of growth at 10 µM", "setting": "IGROV-1", "value": 11, "unit": "%"},
      {"measurement": "inhibition of growth at 10 µM", "setting": "NCI-H226", "value": 16, "unit": "%"},
      {"measurement": "inhibition of growth at 10 µM", "setting": "SNB-19", "value": "< 10", "unit": "%"},
      {"measurement": "inhibition of growth at 10 µM", "setting": "A549", "value": 10, "unit": "%"}
    ]}
  ]
}
